These results are taken from patent US4959393A, “Skin depigmental agent” (priority 1988, dated 1990).

One may read the LD50 as the dose expected to kill half of the subjects tested.

Some results are limits rather than exact numbers.

In the first data set the test system is salmonella typhimuria.
Assay: not given
To be noted: Ames test using salmonella typhimuria. A general note: The Ames test uses bacterial strains that need an amino acid and regain growth without it when mutated back.
For `CC(C)CCc1ccc(O)cc1O` [Isoamyl resorcinol, 4-Isoamyl resorcinol], the “variability (Ames test)” value was “no variability”.

In a further data set the test system is tyrosinase. Nature of the data set: Measurement of Dopa Oxidation Activity (formation of dopa quinone from dopa). The class given is biochemical, Mushroom. To be noted: L-dopa 5×10^-3 M; 10 units tyrosinase; 475 nm; control 15.80. The text has this:
(§1) Tyrosinase is a copper-containing enzyme which controls synthesis of melanin from starting tyrosine. This enzyme is considered to act as a catalyst for the formation of dopa, dopaquinone and indole-5,6-quinone which are, respectively, intermediates for the synthesis of melanin. We measured activities of the resorcinol derivatives of the formula (1) on inhibition of the formation reactions of the former two intermediates, i.e. the formation reaction of dopa (tyrosine hydroxylase) from tyrosine and the formation reaction of dopa quinone (dopa oxidase) from the dopa. From this, the activity on the tyrosinase activity inhibition was determined.
(§2) The presence or absence of UV absorptions of the substrate and the substance to be detected was confirmed, after which […] of tyrosinase (Mushroom, 200 units, made by Sigma Co., Ltd.) was added for starting the reaction. The variation in absorbance at 280 nm which is a maximum absorption of L-dopa was measured. The tyrosine hydroxylation activity was indicated a nmol dopa/min/mg of protein. The amount of the protein was measured according to Lowry's method.
(2) Measurement of Dopa Oxidation Activity
The general procedure of Measurement (1) was repeated except that L-dopa (5×10^-3 M) was used as a that produced dopa chrome was measured at a wavelength of 475 nm, and that 10 units of tyrosinase were used.
The dopa oxidation activity was indicated as μmol of dopa chrome/min/mg of protein.
`CCc1ccc(O)cc1O` [Experiment 7]: the “Activity (dopa oxidation activity)” value is given as 7.44 μmol of dopa chrome/min/mg of.
In the case of `CCCCc1ccc(O)cc1O` [Experiment 8], the “Activity (dopa oxidation activity)” value is on record as 0.00 μmol of dopa chrome/min/mg of.
As to `CC(C)CCc1ccc(O)cc1O` [Experiment 9], the “Activity (dopa oxidation activity)” value is 0.00 μmol of dopa chrome/min/mg of.
For the compound `CCCCCCc1ccc(O)cc1O` [Experiment 10], the “Activity (dopa oxidation activity)” value was 0.00 μmol of dopa chrome/min/mg of.
The same measure, in the same setting: with `CCCCCCCCc1ccc(O)cc1O` [Experiment 11] the figure was 0.00 μmol of dopa chrome/min/mg of; with `CCCCCCCCCCCCc1ccc(O)cc1O` [Experiment 12], 7.19 μmol of dopa chrome/min/mg of.
On to `Cc1ccc(O)cc1O` [drawing 15, reference compound], for which the “Activity (dopa oxidation activity)” value was 16.81 μmol of dopa chrome/min/mg of.
For `Oc1ccc(O)cc1` [hydroquinone, reference compound], the “Activity (dopa oxidation activity)” value was 26.94 μmol of dopa chrome/min/mg of.

The next data set concerns skin.
Assay: not given
To be noted: cited from earlier work.
Consider `N[C@@H](CS)C(=O)O` [cysteine], for which the depigmental effect result is “do not exhibit a satisfactory depigmental effect since the development of the effect is very slow”.
Regarding `N[C@@H](CCC(=O)N[C@@H](CS)C(=O)NCC(=O)O)C(=O)O` [glutathione], the depigmental effect result is “do not exhibit a satisfactory depigmental effect since the development of the effect is very slow”.

System in the next data set: not listed separately
Nature of the data set: in vivo. To be noted: mouse, ip, ddy male mice, intraperitoneal, read-out: LD50 i.p. As to the method:
The life or death of the mice before 24 hours was observed. The value of LD50 was calculated according to the Litchfield-Wilcoxom method using the above results.
In the case of `CCCCCCc1ccc(O)cc1O` [drawing 16], the LD50 at 24 h was determined as 335 mg/kg.
In the case of `CC(C)CCc1ccc(O)cc1O` [drawing 17], the LD50 at 24 h was determined as 269 mg/kg.

Still in this data set, the particulars now being: mouse, po, ddy male mice, peroral, read-out: LD50 p.o.
Consider `CCCCCCc1ccc(O)cc1O` [drawing 16], for which the LD50 at 24 h is above 500 mg/kg.
For the compound `CC(C)CCc1ccc(O)cc1O` [drawing 17], the LD50 at 24 h was above 500 mg/kg.

The data set is the same for the next values; noted with them: mouse, sc, ddy male mice, subcutaneous, read-out: LD50 s.c.
For the compound `CCCCCCc1ccc(O)cc1O` [drawing 16], the LD50 at 24 h was above 500 mg/kg.
Consider `CC(C)CCc1ccc(O)cc1O` [drawing 17], for which the LD50 at 24 h is above 500 mg/kg.

The next data set concerns tyrosinase. Nature of the data set: Measurement of Tyrosine Hydroxylation Activity (formation of dopa from tyrosine). To be noted: L-tyrosine 1×10^-4 M; 200 units mushroom tyrosinase; absorbance at 280 nm; control 1.83. The class given is biochemical.
Excerpt: as §1
(1) Measurement of Tyrosine Hydroxylation Activity
as §2
With `Cc1ccc(O)cc1O` [Comparative Experiment 1, reference compound], the “Activity (tyrosine hydroxylation activity)” value is on record as 1.78 nmol dopa/min/mg of protein.
The same measure, in the same setting: for `CCCCc1ccc(O)cc1O` [Experiment 2] the value was 0.00 nmol dopa/min/mg of protein; for `CC(C)CCc1ccc(O)cc1O` [Experiment 3], 0.00 nmol dopa/min/mg of protein.
`CCCCCCc1ccc(O)cc1O` [Experiment 4]: the “Activity (tyrosine hydroxylation activity)” value is on record as 0.00 nmol dopa/min/mg of protein.
On to `CCCCCCCCc1ccc(O)cc1O` [Experiment 5], for which the “Activity (tyrosine hydroxylation activity)” value is given as 0.00 nmol dopa/min/mg of protein.
`CCCCCCCCCCCCc1ccc(O)cc1O` [Experiment 6]: the “Activity (tyrosine hydroxylation activity)” value is 0.33 nmol dopa/min/mg of protein.
In the case of `CCc1ccc(O)cc1O` [drawing 2], the “Activity (tyrosine hydroxylation activity)” value is 0.00 nmol dopa/min/mg of protein.
Turning to `Oc1ccc(O)cc1` [hydroquinone, reference compound], the “Activity (tyrosine hydroxylation activity)” value is 0.00 nmol dopa/min/mg of protein.
